Structures are written as SMILES.

Data set [1] in a line: Half life in mouse plasma at 5 mg/kg, po by HPLC/MS analysis. Format: ADME, organism-based.
The nature of data set [2]: Drug metabolism in mouse liver microsomes assessed as compound oxidation by measuring parent compound remaining at 1 uM after 30 mins in presence of NADPH by LC-MS/MS analysis. Format: ADME.
A short description of data set [3]: Drug metabolism in human liver microsomes assessed as compound oxidation by measuring parent compound remaining at 1 uM after 30 mins in presence of NADPH by LC-MS/MS analysis. The settings on record: liver microsomes, read-out: Stability. Format: ADME.
A short description of data set [4]: Drug metabolism in mouse liver microsomes assessed as UGT-mediated compound glucuronidation by measuring parent compound remaining at 5 uM after 30 mins in presence of UDPGA by LC-MS/MS analysis. The data set is classed as ADME. The settings on record: liver microsomes, read-out: Stability.
Data set [5] can be described thus: Drug metabolism in human liver microsomes assessed as UGT-mediated compound glucuronidation by measuring parent compound remaining at 5 uM after 30 mins in presence of UDPGA by LC-MS/MS analysis. The settings on record: read-out: Stability. Format: ADME.
The nature of data set [6]: Oral bioavailability in mouse plasma at 5 mg/kg by HPLC/MS analysis. The data set is classed as ADME, organism-based.
A short description of data set [7]: Clearance in mouse plasma at 1 mg/kg, iv or 5 mg/kg, po by HPLC/MS analysis. The data set is classed as ADME, organism-based.
The nature of data set [8]: AUC in mouse plasma at 5 mg/kg, po by HPLC/MS analysis. The data set is classed as ADME, organism-based.
Data set [9] in a line: Apparent volume of distribution in mouse plasma at 1 mg/kg, iv or 5 mg/kg, po by HPLC/MS analysis. Format: ADME, organism-based. As to conditions: read-out: Vz.
For data set [10], the target named is Tyrosine-protein kinase BTK (Homo sapiens, UniProt Q06187).
A short description of data set [11]: Apparent volume of distribution in mouse plasma at 2 mg/kg, iv or 10 mg/kg, po by HPLC/MS analysis. Format: ADME, organism-based. As to conditions: in vivo.
Data set [12] is described as follows: Protein binding in mouse plasma. The data set is classed as ADME, cell-free. The settings on record: read-out: PPB (converted).
Data set [13] is described as follows: Drug metabolism in rat liver microsomes assessed as compound oxidation by measuring parent compound remaining at 1 uM after 30 mins in presence of NADPH by LC-MS/MS analysis. Format: ADME. The settings on record: liver microsomes, read-out: Stability.
Data set [14] can be described thus: Clearance in mouse plasma at 2 mg/kg, iv or 10 mg/kg, po by HPLC/MS analysis. The data set is classed as ADME, organism-based. The settings on record: in vivo.
The nature of data set [15]: Drug metabolism in dog liver microsomes assessed as compound oxidation by measuring parent compound remaining at 1 uM after 30 mins in presence of NADPH by LC-MS/MS analysis. The data set is classed as ADME, Canis lupus familiaris. The settings on record: 0.5 h.
The nature of data set [16]: AUC in mouse plasma at 10 mg/kg, po by HPLC/MS analysis. Format: ADME, organism-based. The settings on record: plasma, read-out: AUC.
A short description of data set [17]: Efflux ratio of apparent permeability from basolateral to apical side over apical to basolateral side in human Caco2 cells. The settings on record: caco-2. The data set is classed as ADME, cell-based.
Data set [18] addresses T1, Phosphatidylinositol 4,5-bisphosphate 3-kinase catalytic subunit delta isoform (Homo sapiens, UniProt O00329).
T1 sequence (O00329 whole entry): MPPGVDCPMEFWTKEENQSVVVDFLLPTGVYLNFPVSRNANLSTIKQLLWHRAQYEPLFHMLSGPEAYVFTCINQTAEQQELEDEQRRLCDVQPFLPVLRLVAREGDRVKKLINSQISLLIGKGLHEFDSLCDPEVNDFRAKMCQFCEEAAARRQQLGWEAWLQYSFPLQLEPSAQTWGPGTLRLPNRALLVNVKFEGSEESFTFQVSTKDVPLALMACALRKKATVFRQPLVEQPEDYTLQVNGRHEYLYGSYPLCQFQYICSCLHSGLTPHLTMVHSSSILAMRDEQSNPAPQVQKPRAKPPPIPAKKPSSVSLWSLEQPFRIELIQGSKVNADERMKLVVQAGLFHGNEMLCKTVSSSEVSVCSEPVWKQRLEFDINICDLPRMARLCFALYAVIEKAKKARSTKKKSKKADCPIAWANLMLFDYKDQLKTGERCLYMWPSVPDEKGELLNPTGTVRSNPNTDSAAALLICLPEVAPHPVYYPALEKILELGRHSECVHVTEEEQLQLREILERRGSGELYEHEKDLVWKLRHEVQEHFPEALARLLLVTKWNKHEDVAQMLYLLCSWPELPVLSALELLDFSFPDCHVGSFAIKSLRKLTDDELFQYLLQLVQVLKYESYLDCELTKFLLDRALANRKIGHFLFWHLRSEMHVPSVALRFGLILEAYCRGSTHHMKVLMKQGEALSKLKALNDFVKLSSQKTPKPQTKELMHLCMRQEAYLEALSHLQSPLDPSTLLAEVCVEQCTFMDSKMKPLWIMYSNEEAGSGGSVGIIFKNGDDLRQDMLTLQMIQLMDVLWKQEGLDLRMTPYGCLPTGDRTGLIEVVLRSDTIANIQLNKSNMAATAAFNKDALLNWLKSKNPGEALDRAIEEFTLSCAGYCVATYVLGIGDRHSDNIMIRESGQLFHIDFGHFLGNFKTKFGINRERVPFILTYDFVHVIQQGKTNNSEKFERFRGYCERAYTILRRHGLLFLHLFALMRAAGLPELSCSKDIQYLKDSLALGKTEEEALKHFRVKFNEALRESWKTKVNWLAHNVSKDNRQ
Put plainly: Inhibition of PI3Kdelta (unknown origin) using biotinylated PIP2 as substrate in presence of streptavidin-APC by FRET assay.

Data set [19] in a line: Oral bioavailability in mouse plasma at 10 mg/kg by HPLC/MS analysis. As to conditions: plasma. Format: ADME, organism-based.
A short description of data set [20]: Half life in mouse plasma at 10 mg/kg, po by HPLC/MS analysis. The data set is classed as ADME, organism-based. The settings on record: plasma.

Tyrosine-protein kinase BTK, sequence (Q06187 whole entry): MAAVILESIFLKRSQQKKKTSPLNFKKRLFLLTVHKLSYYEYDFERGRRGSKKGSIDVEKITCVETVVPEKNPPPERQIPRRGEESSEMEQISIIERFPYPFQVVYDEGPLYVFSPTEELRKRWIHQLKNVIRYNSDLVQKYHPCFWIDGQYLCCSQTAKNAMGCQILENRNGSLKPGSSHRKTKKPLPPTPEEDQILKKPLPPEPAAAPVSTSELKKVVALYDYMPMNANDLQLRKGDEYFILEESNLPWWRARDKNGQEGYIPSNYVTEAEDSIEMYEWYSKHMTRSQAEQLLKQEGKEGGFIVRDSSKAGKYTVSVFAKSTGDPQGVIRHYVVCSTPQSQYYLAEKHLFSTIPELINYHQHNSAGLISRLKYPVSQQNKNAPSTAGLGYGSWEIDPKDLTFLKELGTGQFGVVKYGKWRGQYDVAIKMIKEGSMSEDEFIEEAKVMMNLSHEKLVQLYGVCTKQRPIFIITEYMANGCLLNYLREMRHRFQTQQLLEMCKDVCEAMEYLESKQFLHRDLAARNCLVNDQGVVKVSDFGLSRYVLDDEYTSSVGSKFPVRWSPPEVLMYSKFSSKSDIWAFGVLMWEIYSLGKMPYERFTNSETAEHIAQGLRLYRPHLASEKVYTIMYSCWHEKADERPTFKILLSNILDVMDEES

In [1], `Nc1ncnc2c1c(-c1ccc(Br)c(O)c1)nn2C1Cc2ccccc2C1` had a half-life of 2.3 h. The remaining at 0.5 h, 1 µM in data set [2] (liver microsomes, read-out: Stability) was 53%; in data set [3] it was 66%. Moreover, the values for the remaining at 0.5 h, 5 µM in [4] and in [5] were 13% and 5.2%, respectively. Besides, the bioavailability in [6] worked out at 6.9%. The same compound gave a clearance in data set [7] of 63.7 mL/min/kg. In [8], this compound gave an AUC of 0.213 µM·h. Further, in data set [9], the Vd was 5.9 L/kg.
Regarding `Nc1ccc2c(c1)CC(n1nc(-c3cc(F)c4c(c3)NCCO4)c3c(N)ncnc31)C2` (stereo in doubt; (+)-32), the IC50 in data set [10] came to 24 nM; in data set [18], 47 nM. The Vz in [11] came out at 0.58 L/kg. Also, in data set [12], the fraction unbound is 0.02. Further, the Stability is recorded as 28% in data set [2] (microsomes, 0.5 h, 1 µM) and 65% in [15]. Also, the remaining at 0.5 h, 1 µM turned out to be 45% in data set [13] and 71% in [3]. Moreover, the CL in data set [14] came to 24.3 mL/min/kg. In addition, the remaining at 0.5 h, 5 µM in [4] came to 93%; in data set [5] it was 91%. Also, the AUC in [16] was found to be 9.28 µM·h. For the same compound, the efflux ratio in [17] stood at 1.3. In addition, the bioavailability in data set [19] amounted to 57%. In data set [20], this compound showed a half-life of 1.2 h.

(Values after ChEMBL document CHEMBL3864190, “Discovery of Pyrazolopyrimidine Derivatives as Novel Dual Inhibitors of BTK and PI3Kδ” (ACS Med Chem Lett, 2016).)
